# Results: patent publication US20220281931A1, “CHEMICALLY INDUCIBLE POLYPEPTIDE POLYMERIZATION” (Dana-Farber Cancer Institute, Inc., priority 2019, published 2022)
# Columns and labels:
# [1] = target: T1, BCL6^5-360 - SIAH1^SBD (Homo sapiens, UniProt P41182); assay: BCL6-SIAH1 TR-FRET; type: biochemical; settings: preassembled 0.2 μM BodipyBCL6^5-360 and 0.2 μM BiotinSIAH1^SBD, in vitro; read-out: EC50 for increase of the BCL6-SIAH1 interaction
# T1 construct: 200 nM BodipyFL-labeled BCL6^5-360 variants; His6 (N); Spy (C); made in house; host or cells: Trichoplusia ni High Five insect cells, baculovirus
# Procedure: After dispensing the assay mixture (15 μL volume), increasing concentrations of compounds were dispensed in a 384-well microplate (Corning, 4514) using a D300e Digital Dispenser (HP) normalized to 1% DMSO. After excitation of terbium fluorescence at 337 nm, emission at 490 nm (terbium) and 520 nm (BodipyFL) were recorded with a 70 us delay over 600 μs to reduce background fluorescence, and the reaction was followed over 60 cycles of each data point using a PHERAstar FS microplate reader (BMG Labtech). The TR-FRET signal of each data point was extracted by calculating the 520/490 nm ratio. The half-maximal effective concentration (EC50) values were estimated using dose-response analysis standard four parameter log-logistic curves, fitted to the experimental data using […] package. […] After dispensing the assay mixture, increasing concentration of BodipyFL-BCL6^5-360 was added to the SIAH1 mixture in a […] (7.5 μL each, total 15 μL assay volume). The 520/490 nm ratios were measured in as described above and plotted to calculate the KD^APP values using dose-response analysis standard four parameter log-logistic curves using […] package.
# [2] = target: T2, eGFPBCL6^1-275 and V5SIAH1 (Homo sapiens, UniProt P41182); assay: Immunofluorescence of SIAH1 and BCL6 foci in HEK293T cells; type: cell-based; settings: HEK293TCas9 cells, 0.5 μM MLN7243 pre-treatment 2 hours, 1 μM BI-3802 1 hour
# T2 construct: expressed in transfected cells; host or cells: HEK293TCas9 cells, lentiviral transduction
# Procedure: HEK293TCas9 cells expressing eGFPBCL6^250 and eGFPBCL6^275 constructs were transduced with V5SIAH1^C44S (infection rate >70%). […] The cells were fixed with 4% formaldehyde for 15 min and permeabilized with 0.1% Triton X100 for 30 min. Epitopes were blocked with 10% BSA for 10 min. Anti-V5 antibodies were added and incubated on slides overnight at 4° C. After removal of the primary antibodies and washes, Alexa Fluor 633-conjugated anti-mouse antibodies were added and incubated at room temperature for 45 min. Finally, the slides were stained with DAPI (BD Biosciences, #564907, 1:5,000 in H2O) and mounted with SlowFader™ Diamond Antifade Mountant (Thermo Fisher Scientific, S36963). Cells were imaged with the Leica TCS SP5 confocal microscope.
# [3] = target: T3, BCL6^5-360 (Homo sapiens, UniProt P41182); assay: Negative stain electron microscopy of BCL6; type: biochemical; settings: BCL6^5-360, 2 μM or 20 μM BI-3802
# T3 construct: size-exclusion chromatogram of purified BCL6^5-360 in the presence of DMSO; made in house; host or cells: Trichoplusia ni High Five insect cells, baculovirus
# Procedure: The incubated protein samples were rapidly diluted to 10 μg/mL (sample treated with DMSO) or 50 μg/ml (samples treated with BI-3802). A 5 μL aliquot was applied to glow-discharged 400-mesh carbon-coated nickel grids (CF400-NI-UL, Electron Microscopy Sciences). After incubating for 1 min, protein was wicked off with a filter paper and the grid was washed twice with distilled water, followed by two rounds of staining with 2% uranyl acetate for 5 s and 20 s, respectively. Grids were imaged at a nominal magnification of 40,000× on a JEOL JEM-1400Plus operated at 80 kV.
# [4] = tested on: BCL6 mRNA; assay: Quantitative PCR of BCL6 mRNA; type: cell-based, human; settings: SuDHL4Cas9 cells, 1 μM, 1 hour
# Procedure: 1×10^6 SuDHL4Cas99 cells were treated with DMSO or 1 μM BI-3802 for 1 h, collected by centrifugation, washed with PBS, and flash frozen in dry ice. mRNA was isolated using the QIAGEN RNA kit (Qiagen, 74106). For cDNA synthesis, total RNA was reverse transcribed with SuperScript™ VILO™ Master Mix (Invitrogen, 11755050) before qPCR analysis with TaqMan Fast Advanced Master Mix (ThermoFisher Scientific, 4444557) for BCL6 (TaqMan, […], Life Technologies) and GAPDH (TaqMan, Hs02758991_g1). Reactions were run and analyzed on QStudio 6 FLX real-Time PCR System (ThermoFisher Scientific).
# [5] = target: T4, BCL6 (Homo sapiens, UniProt P41182); assay: Cellular fractionation and immunoblot of BCL6; type: cell-based; settings: SuDHL4 cells, 1 μM, 24 hours
# T4 construct: endogenous in cells; host or cells: SuDHL4 / SuDHL4Cas9 cells
# Procedure: 1×10^6 SuDHL4Cas9 cells were treated with DMSO or 1 μM BI-3802 for 24 h and fractionated using the CelLytic™NuCLEAR™Extraction Kit (Sigma-Aldrich) according to the manufacturer's protocol, resolved on a polyacrylamide gel, and immunoblotted for the indicated targets.
# [6] = target: T5, Nano-LuciferaseSIAH1^C44S and HaloTagBCL6 (Homo sapiens, UniProt P41182); assay: NanoBRET BCL6-SIAH1 interaction in HEK293T cells; type: cell-based; settings: 1 μM, 2 hours
# T5 construct: expressed in transfected cells; host or cells: HEK293T cells, transient transfection
# Procedure: Bioluminescence resonance energy transfer (BRET) experiments were performed using a NanoBRET PPI starter kit (Promega N1821) according to the manufacturer's instructions and as previously described (Sperling, A. S. et al. Patterns of substrate affinity, competition, and degradation kinetics underlie biological activity of thalidomide analogs. Blood 134, 160-170, doi:10.1182/blood.2019000789 (2019)).
# [7] = target: T6, eGFPBCL6 stability reporter (Homo sapiens, UniProt P41182); assay: Degradation of BCL6 reporter constructs in HEK293T cells (flow cytometry); type: cell-based; settings: HEK293T cells, 1 μM, 1 hour
# T6 construct: the full length BCL6 (BCL6^FL) was fused in-frame with eGFP; expressed in transfected cells; host or cells: HEK293TCas9 cells, lentiviral transduction (Artichoke vector)
# Procedure: Lentivirus was packaged in HEK293T cells using TransIT (Mirus) and subsequently used for spin infection.
# HEK293TCas9 cells expressing indicated constructs in “Artichoke” or “Cilantro2” stability reporter vectors (PGK or SFFV Target-eGFP-IRES-mCherry, puromycin resistance) were plated in 96 well plates and treated for indicated times. BCL6-eGFP and mCherry expression were quantified by flow cytometry (CytoFLEX, Beckman or LSR Fortessa flow cytometer BD Biosciences). All degradation assays were done in at least triplicates. Geometric means of eGFP and mCherry fluorescent signals for live and mCherry positive cells were exported using flow cytometry analysis software (FlowJo, BD). Ratios of eGFP to mCherry were normalized to the average of DMSO-treated controls.
smiles,measurement,setting,value
"CNC(=O)COc1cc2cc(Nc3nc(N4C[C@H](C)C[C@H](C)C4)ncc3Cl)ccc2n(C)c1=O [BI-3802, 2-((6-((5-chloro-2-((3S,5R)-3,5-dimethylpiperidin-1-yl)pyrimidin-4-yl)amino)-1-methyl-2-oxo-1,2-dihydroquinolin-3-yl)oxy)-N-methylacetamide]",EC50,[1],64 nM
same,SIAH1 colocalization to BCL6 foci,[2],SIAH1 colocalized to BCL6 foci in a V×P motif dependent manner
same,higher-order BCL6 structures by negative stain EM,[3],formation of regular structures with a sinusoidal shape was observed
same,BCL6 mRNA expression,[4],did not alter BCL6 mRNA expression
same,chromatin-bound BCL6 level,[5],efficiently depleted chromatin-bound BCL6
same,effect on the BCL6-SIAH1 interaction in cells (mBRET signal),[6],increased the interaction between BCL6 and SIAH1
same,degradation of full-length BCL6 reporter (eGFPBCL6^FL),[7],induced degradation of the full-length BCL6 reporter
